Reference: patent publication US20200399238A1, “THERAPEUTIC AURONES” (MIDDLE TENNESSEE STATE UNIVERSITY, priority 2016, published 2020)
“And” between values parts separate entries of the source, which are not always exact repeats. Identical values can stand only once. Like-named read-outs stand apart in the source and are kept apart here.

How the values were obtained:
[1] = system: rat skeletal muscle cell line, L6; assay: cells; type: cell-based
Procedure: Cells were maintained in high glucose DMEM obtained from HyClone Laboratories (Logan, Utah) and supplemented with FCS and P/S at the same concentrations used for parasite culture. Cells were passaged every 3-4 days and maintained in a 37° C. humidified incubator in an atmosphere of 5% CO2. For assays. cells were detached, counted using a hemocytometer, and adjusted using fresh media to deliver 5×10^3 cells per well (90 μL) in black walled, flat clear bottom 96-well microtiter plates. After 3 h incubation for attachment, compounds diluted in culture medium were added (10 μL) to triplicate wells. Positive controls (cells treated with podophyllotoxin (Sigma, St. Louis, Mo.)), negative controls (untreated cells), solvent controls (DMSO) and media blanks were included on each plate. Following incubation for 71.5 h, 11 μL of PrestoBlue was added into each well.

[2] = system: Trypanosoma cruzi Tulahuen cells expressing beta-galactosidase; assay: T. cruzi intracellular assay (beta-galactosidase, L6 host cells); details: for IC50: Trypanosoma cruzi, TULAHUEN
Procedure: Trypanosoma cruzi Tulahuen cells expressing beta-galactosidase (Buckner et al., Antimicrob. Agents Chemother. 40 (1996) 2592-2597) were cultured using the L6 cell line as a host cell. Adherent L6 cultures were infected with freshly burst T. cruzi trypomastigotes. Approximately 4-6 days later freshly burst trypomastigotes were collected and used to maintain cultures For assays, trypomastigotes were centrifuged to a loose pellet and incubated for 3 hours to allow the trypomastigote forms to swim out of the pellet. Cells were adjusted for addition to intracellular or extracellular assays. […] For intracellular assays, cells were added to adherent L6 cells using an infection ratio of 1:1 and immediately treated with compounds. At 96 hours incubations, a solution containing chlorophenol-red-B-D-beta-galactopyranosidase (Sigma) and a lysis agent were added. After an additional 2 hour incubation, a spectrophotometer was used to quantify the resulting color change (or lack thereof) which was used to calculate inhibition.
The percentage of cell inhibition was calculated using the formula: Percent Inhibition=1−((Treated Sample value−Medium only value)/(Untreated value−Medium only value))×100. Results are expressed as the mean of two or more independent trials.

[3] = system: Leishmania amazonensis promastigotes expressing beta-lactamase; assay: microbe, parasite or virus in culture; type: cell-based; details: for IC50: Leishmania amazonensis
Procedure: Leishmania amazonensis promastigotes expressing beta-lactamase (Buckner et al., Am. J. Trop. Med. Hyg. 72 (2005) 600-605. doi:72/5/600 [pii]) were cultured in RPMI supplemented with 10% fetal calf serum and 1% pen-strep-glut solution (Sigma) at 27° C. Stationary phase promastigotes were adjusted in fresh media, treated with compounds, and incubated at 37° C. At 24 hours, 100 uL of cultures was added to 50 uL of the CellTiter Glo® solution. Luminescence readings were taken with a spectrophotometer and used to calculate inhibition.

[4] = system: Trypanosoma brucei brucei 427 cells; assay: T. brucei culture and assay (PrestoBlue); type: cell-based
[5] = Rattus norvegicus, Table 1, read-out: IC50 Toxicity (L6)
[6] = read-out: IC50 T. cruzi, Table 1, intracellular assay, mean of 2(+) trials (^c one trial)
[7] = read-out: IC50 T. cruzi, Table 2, intracellular assay, mean of 2(+) independent trials
[8] = Trypanosoma brucei, Table 1, mean of 2(+) independent trials, read-out: IC50 T. brucei
[9] = Trypanosoma brucei, read-out: T. brucei IC50 dose
[10] = Rattus norvegicus, Table 3B, weighted means of two or more independent trials, read-out: IC50 L6
[11] = read-out: IC50 TC-I, Table 3B, weighted means of two or more independent trials
[12] = Table 3B, estimated from highest L6 dose tested where no L6 IC50

| SMILES | IC50 [1, 5] [µM] | IC50 [2, 6] [µM] | IC50 [2, 7] [µM] | IC50 ([3]; read-out: IC50 L. amaz.) [µM] | IC50 [4, 8] [µM] | further results |
| --- | --- | --- | --- | --- | --- | --- |
| CC(=O)N1/C(=C\c2ccccc2O)C(=O)c2ccccc21 [AA3A] | > 200 | > 50 | > 50 | < 1 | > 50 | – |
| CC(=O)N1/C(=C\c2ccc[nH]2)C(=O)c2ccccc21 [AA5A] | 39.8 | 33.5 | 33.5 | < 1 | 26.3 | – |
| O=C1/C(=C/c2ccc[nH]2)Nc2ccccc21 [AA5] | 39.7 | 27.8 | – | – | 49.3 | – |
| O=C1/C(=C/c2ccccc2)Nc2ccccc21 [AA8] | > 100 | 16.8 | 16.8 | < 1 | 11.7 | – |
| O=C1/C(=C/c2cccs2)Nc2ccccc21 [AA9] | > 200 | > 50 | > 50 | < 1 | > 50 | – |
| O=C1/C(=C/c2ccccc2Cl)Nc2ccccc21 [AA11] | > 200 | > 50 | – | 1.86 | > 50 | IC50 ([2]; read-out: IC50 T. cruzi (footnote c: value obtained from one trial), Table 2, one trial): > 50 µM |
| O=C1/C(=C/c2ccccc2Cl)Oc2ccccc21 [Aurone 3a, (Z)-2-(2-chlorobenzylidene)benzofuran-3(2H)-one] | – | – | – | – | – | selectivity for T. brucei (L6/Tb) [4]: 21.02; IC50 [4, 9]: 11.3 µM |
| O=C1/C(=C/c2ccc(Cl)cc2)Oc2ccccc21 [Aurone 3c, (Z)-2-(4-chlorobenzylidene)benzofuran-3(2H)-one] | – | – | – | – | – | IC50 ([2]; read-out: T. cruzi IC50 dose): < 10 µM |
| O=C1/C(=C/c2cccc(I)c2)Oc2ccccc21 [Aurone 4b, (Z)-2-(3-iodobenzylidene)benzofuran-3(2H)-one] | – | – | – | – | – | IC50 ([2]; read-out: T. cruzi IC50 dose): < 10 µM; IC50 [4, 9]: > 50 µM |
| O=C1/C(=C/c2cccc(Br)c2)Oc2ccccc21 [Aurone 5b, (Z)-2-(3-bromobenzylidene)benzofuran-3(2H)-one] | – | – | – | – | – | IC50 ([2]; read-out: T. cruzi IC50 dose): < 10 µM; IC50 [4, 9]: > 50 µM |
| O=C1/C(=C/c2ccc(C(F)(F)F)cc2)Oc2ccccc21 [Aurone 6c, (Z)-2-(4-(trifluoromethyl)benzylidene)benzofuran-3(2H)-one] | – | – | – | – | – | IC50 ([2]; read-out: T. cruzi IC50 dose): < 10 µM |
| N#Cc1ccc(/C=C2\Oc3ccccc3C2=O)cc1 [Aurone 7c] | – | – | – | – | – | selectivity for T. brucei (L6/Tb) [4]: 29.49 and 29.46; IC50 [4, 9]: 8.12 µM |
| O=C1/C(=C/c2cccc([N+](=O)[O-])c2)Oc2ccccc21 [Aurone 12a] | – | – | – | – | – | activity against T. cruzi [2]: modest activity; activity against T. brucei [4]: modest activity |
| O=C1/C(=C/c2ccc([N+](=O)[O-])cc2)Oc2ccccc21 [Aurone 12b] | – | – | – | – | – | activity against T. cruzi [2]: modest activity; activity against T. brucei [4]: modest activity |
| COC(=O)c1ccc(/C=C2\Oc3ccccc3C2=O)cc1 [Aurone 13, Methyl (Z)-4-((3-oxobenzofuran-2(3H)-ylidene)methyl)benzoate] | – | – | – | – | – | activity against T. cruzi [2]: no activity; activity against T. brucei [4]: no activity |
| O=C1/C(=C/c2ccc(Br)cc2)Oc2c1ccc(O)c2O [Aurone 1005, (Z)-2-(4-bromobenzylidene)-6,7-dihydroxybenzofuran-3(2H)-one] | > 100 | > 50 | – | 31.1 | 48 | – |
| COc1ccc(/C=C2\Oc3ccccc3C2=O)c(OC)c1OC [Aurone 2001] | > 100 | > 50 | – | 13.3 | 22.4 | – |
| COc1cc(/C=C2\Oc3ccccc3C2=O)cc(OC)c1OC [Aurone 2002] | > 100 | > 50 | – | 12.6 | > 50 | – |

| SMILES | IC50 [1, 5] [µM] | IC50 [2, 6] [µM] | IC50 [2, 7] [µM] | IC50 ([3]; read-out: IC50 L. amaz.) [µM] | IC50 [4, 8] [µM] | further results |
| --- | --- | --- | --- | --- | --- | --- |
| O=C1/C(=C/c2cccs2)Oc2ccccc21 [Aurone 2004] | > 100 | 13.7 | 13.7 | < 1 | 41.8 | IC50 [1, 10]: > 100 µM; IC50 [2, 11]: 13.7 µM; IC50 ([2]; read-out: T. cruzi IC50 dose): 13.7 µM; activity against T. brucei [4]: moderate activity |
| O=C1/C(=C/c2ccncc2)Oc2ccccc21 [Aurone 2008] | 81.1 | 16.4 | – | 26.3 | > 50 | IC50 [1, 10]: 81.1 µM; IC50 [2, 11]: 16.4 µM |
| O=C1/C(=C/c2ccc(Br)cc2)Oc2ccccc21 [Aurone 2009] | > 100 | 11.4 | – | 10.3 | 41.7 | – |
| O=C1/C(=C/c2ccc([N+](=O)[O-])cc2)Oc2ccccc21 [Aurone 2010] | 249 | 20 | 20 | 14.5 | 40.7 | – |
| COc1ccc(/C=C2\Oc3ccccc3C2=O)cc1OC [Aurone 2011] | 51.9 | 21.9 | 21.9 | 1.01 | 22.9 | – |
| O=C1/C(=C/C=C/c2ccccc2)Oc2ccccc21 [Aurone 2013] | 58 | 14.1 | 14.1 | 3.03 | 13.2 | IC50 ([2]; read-out: T. cruzi IC50 dose): 14.1 µM; IC50 ([3]; read-out: IC50 L. amaz. (footnote c: value obtained from one trial)): 3.03 µM; IC50 [4, 9]: 13.2 µM |
| N#Cc1ccc(/C=C2\Oc3ccccc3C2=O)cc1 [Aurone 2014] | 239 | 23.5 | 23.5 | 10.7 | 8.12 | – |
| O=C1/C(=C/c2cccc([N+](=O)[O-])c2)Oc2ccccc21 [Aurone 2015] | 226 | 22.6 | 22.6 | 1.71 | 29.2 | – |
| O=C1/C(=C/c2ccc(-c3ccccc3)cc2)Oc2ccccc21 [Aurone 2018] | 298 | 34.4 | 34.4 | 7.22 | > 50 | – |
| O=C1/C(=C/c2ccc[nH]2)Oc2ccccc21 [Aurone 2021] | 82.7 | 14.6 | 14.6 | < 1 | 38.9 | IC50 [1, 10]: 82.7 µM; IC50 [2, 11]: 14.6 µM |
| O=C1/C(=C/c2ccco2)Oc2ccccc21 [Aurone 2023] | > 100 | 6.97 | 6.97 | < 1 | > 50 | IC50 [1, 10]: > 100 µM; IC50 [2, 11]: 6.97 µM; IC50 ([2]; read-out: T. cruzi IC50 dose): < 10 µM; IC50 ([4]; Trypanosoma brucei, read-out: IC50 TB): > 50 µM; IC50 [4, 9]: > 50 µM |
| O=C1/C(=C/c2ncc[nH]2)Oc2ccccc21 [Aurone 2026, (Z)-2-((1H-imidazol-2-yl)methylene)benzofuran-3(2H)-one] | > 100 | 20.9 | 20.9 | < 1 | 16.1 | IC50 [1, 10]: > 100 µM; IC50 [2, 11]: 20.9 µM; selectivity for T. brucei (L6/Tb) [4]: > 6.22; IC50 [4, 9]: 16.1 µM |
| O=C1/C(=C/c2ccc(Br)cc2)Oc2cc(O)ccc21 [Aurone 2905, (Z)-2-(4-bromobenzylidene)-6-hydroxybenzofuran-3(2H)-one] | > 100 | > 50 | – | 39 | > 50 | – |
| O=C1/C(=C/c2ccc[nH]2)Oc2cc(O)ccc21 [Aurone 2906, (Z)-2-((1H-pyrrol-2-yl)methylene)-6-hydroxybenzofuran-3(2H)-one] | > 100 | > 50 | – | 19.9 | 34.6 | – |
| O=C1/C(=C/c2ccc(C(F)(F)F)cc2)Oc2cc(O)ccc21 [Aurone 2909, (Z)-6-hydroxy-2-(4-(trifluoromethyl)benzylidene)benzofuran-3(2H)-one] | > 100 | > 50 | > 50 | 3.97 | > 50 | IC50 ([1]; Table 2, L6 mammalian cells, read-out: IC50 Toxicity (L6)): > 100 µM; Selectivity L6/La ([3]; Table 1): >25.19; Selectivity L6/La ([3]; Table 2, L6 IC50 / L. amazonensis IC50): >25.19; IC50 ([4]; Table 2, mean of 2(+) independent trials, read-out: IC50 T. brucei): > 50 µM |
| COc1cc(OC)c2c(c1)O/C(=C\c1ccc(C)cc1)C2=O [Aurone 7000] | 142 | 7.92 | 7.92 | – | 23.2 | – |
| O=C1/C(=C/c2cccc(Br)n2)Oc2ccccc21 [Aurone 9260, (Z)-2-((6-bromopyridin-2-yl)methylene)benzofuran-3(2H)-one] | > 100 | 14.6 | – | – | 43.6 | IC50 [1, 10]: > 100 µM; Selectivity L6/Tc ([2]; Table 1, intracellular T. cruzi IC50): >6.87; Selectivity L6/Tc-I [2, 12]: >6.87; IC50 [2, 11]: 14.6 µM; Selectivity L6/Tb ([4]; Table 1): >2.29; Selectivity L6/Tb [4, 12]: >4.96; IC50 [4, 9]: 43.6 µM |
| O=C1/C(=C/c2cccc(O)c2)Oc2ccccc21 [Sample 9252] | – | – | – | – | – | IC50 ([1]; Rattus norvegicus, Table 3A, weighted means of two or more independent trials, read-out: IC50 L6): > 100 µM; IC50 ([2]; read-out: IC50 TC-I, Table 3A, weighted means of two or more independent trials): 16.5 µM |
